Converted amounts (≈) assume the structure as drawn. “Also recorded” adds a separate entry of the source. Read-outs that look alike come from different tables or passages of the source.
Key:
[1] = system: DNA; conditions: in words, cited from earlier work
[2] = system: KB human nasopharyngeal carcinoma cells; experiment: Cytotoxicity (antiproliferative effect), crystal violet staining; format: cell-based; conditions: Homo sapiens, KB, 72 h
Protocol: KB human nasopharyngeal carcinoma cells, were maintained in RPMI 1640 medium supplemented with 10% fetal bovine serum. KB cells were cultured in plastic tissue culture flasks and kept in an incubator at 37° C. in humidified air containing 5% CO2. These cells were free of Mycoplasma as determined with Hoechst 33258 stain.
The antiproliferative effect of compounds was determined using cell staining method by crystal violet.
One hundred-μ1 cultures were established at 10^3 cells/well in 96-well tissue culture plates (Nunc, Roskilde, Denmark). After 24 h. 100 µl of the medium containing 2 times concentrated the compounds were added to the cell culture. After an additional 3 days culture, cells were fixed to 20 µl of 25% glutaraldehyde for 15 minutes and washed with water, dried and stained with 0.05% crystal violet in 20% methanol for 15 minutes. After washing with water and drying, crystal violet was extracted with 100 µl of 50 mM NaH2 PO4 /ethanol (1:1 v/v) and OD540 was measured by the multiscanphotometer (Corona, Tokyo, Japan). A linear relationship between cell number and the amount of dye binding was found over the range of cell densities observed all experiments.

[3] = system: DNA; experiment: Site and sequence selective DNA alkylation by polyacrylamide gel electrophoresis (PAGE); format: biochemical; conditions: for Alkylation Intensity at AATA*: site AATA*; for Alkylation Intensity at ATAA*: site ATAA*; for Alkylation Intensity at CTTA: site CTTA; for Alkylation Intensity at GAAA: site GAAA; for Alkylation Intensity at GATA*: site GATA*; for Alkylation Intensity at GTTA: site GTTA; for Alkylation Intensity at TATA: site TATA; for Alkylation Intensity at TTAA*: site TTAA*; for Alkylation Intensity at TTTA: site TTTA; for Frequency of Occurrence, base A at +1 / Frequency of Occurrence, A/T at +1 / Frequency of Occurrence, base G at +1 / Frequency of Occurrence, base T at +1: position +1; for Frequency of Occurrence, base A at +3 / Frequency of Occurrence, A/T at +3 / Frequency of Occurrence, base C at +3 / Frequency of Occurrence, base G at +3 / Frequency of Occurrence, base T at +3: position +3; for Frequency of Occurrence, base A at -1 / Frequency of Occurrence, A/T at -1 / Frequency of Occurrence, base T at -1: position -1; for Frequency of Occurrence, base A at -2 / Frequency of Occurrence, A/T at -2 / Frequency of Occurrence, base T at -2: position -2; for Frequency of Occurrence, base A at -3 / Frequency of Occurrence, A/T at -3 / Frequency of Occurrence, base C at -3 / Frequency of Occurrence, base G at -3 / Frequency of Occurrence, base T at -3: position -3; for Frequency of Occurrence, A* (site of alkylation): alkylated base A*; for Frequency of Occurrence, G* (site of alkylation): alkylated base G*
Source text: In contrast to FCE 24517, clear evidence of site and sequence selective DNA alkylation was obtained for the new CPI-oligopeptides by polyacrylamide gel electrophoresis (PAGE). […] Table 5 quantifies and compares the alkylation intensities at different sites for the CPI-oligopeptides with CC-1065. […] A detailed analysis of the frequency of occurrence of bases flanking the prominent alkylation sites for YW-052 and YW-053 compared with CC-1065 is given in Table 7.

[4] = clinical applications/usage; in words; cited from earlier work
[5] = system: P388 lymphocytic leukemia cells; experiment: Antitumor efficacy, i.p. P388 lymphocytic leukemia in CDF1 mice; format: in vivo, mouse; conditions: for In vivo ILS P388 (ip): maximum ILS
Protocol: All compounds were dissolved in dimethyl sulfoxide (DMSO), diluted in sterile 0.9% NaCl solution to 5% final DMSO concentration. BALB/c X DBA/2F1 (CDF1) mice were purchased from Japan CLEA. P388 lymphocytic leukemia cells were inoculated intraperitoneally (10^6 cells) 1 day prior to treatment into 6 week-old male CDF1 mice, and compounds were injected intraperitoneally in a total volume of 0.1 ml/10g mouse body weight. Efficacy for these models was expressed as the Increase in life span (ILS) of treated mice in comparison to untreated tumor-bearing mice. Experiment was completed on day 30 after tumor inoculation, and survivor on that day was evaluated as cured animal. Time to death (mean±SD.n=9) for untreated animals was 11.5±1.2 day and for solvent treated animals was 11.7±2.1 day.

[6] = Table 1, KB cells, 3 days, read-out: KB cells, toxicity TD50
[7] = Table 4, KB cell, read-out: Cytotoxicity IC50 (KB cell)

Cn1cc(NC(=O)c2cc(NC(=O)c3cc(NC(=O)c4ccc(N(CCCl)CCCl)cc4)cn3C)cn2C)cc1C(=O)NCCC(=N)N [FCE 24517]
DNA alkylation ([1]; Arcamone et al., 1989): shows no evidence of DNA alkylation | DNA sequence recognition [1]: strictly AT recognizing; also recorded: strictly limited AATT recognition

Cc1c[nH]c2c1C13CC1CN(C(=O)CCc1cccn1C)C3=CC2=O (centres unmarked) [YW-033]
IC50 [2, 6]: 263 ng/mL (≈ 784 nM) | Alkylation Intensity at AATA* [3]: 1.42 | Alkylation Intensity at ATAA* ([3]; first column of Table 5): .95 | Alkylation Intensity at ATAA* ([3]; third column of Table 5): 1.11 | Alkylation Intensity at CTTA [3]: .68 | Alkylation Intensity at GAAA [3]: .84 | Alkylation Intensity at GATA* [3]: 1.41 | Alkylation Intensity at GTTA [3]: 1.27 | Alkylation Intensity at TATA [3]: 1.40 | Alkylation Intensity at TTAA* [3]: .84 | Alkylation Intensity at TTTA [3]: .97

COc1c(O)c2c(c3cc(C(=O)N4CCc5c4c(O)c(OC)c4[nH]c(C(=O)N6CC7CC78C6=CC(=O)c6[nH]cc(C)c68)cc54)[nH]c13)CCN2C(N)=O (centres unmarked) [CC-1065, reference compound]
IC50 ([2]; Table 2, KB cells, 3 days, read-out: KB cells, toxicity TD50): 0.001 ng/mL (≈ 0.00142 nM) | DNA sequence recognition [1]: strictly AT recognizing; also recorded: strictly limited AATT recognition | toxicity (delayed death syndrome) [4]: too toxic for clinical applications because of the delayed death syndrome; also recorded: too toxic for clinical usage | Frequency of Occurrence, base A at +1 [3]: 30% | Frequency of Occurrence, base A at +2 ([3]; position +2): 30% | Frequency of Occurrence, base A at +3 [3]: 20% | Frequency of Occurrence, base A at -1 [3]: 40% | Frequency of Occurrence, base A at -2 [3]: 40% | Frequency of Occurrence, base A at -3 [3]: 30% | Frequency of Occurrence, A/T at +1 [3]: 80% | Frequency of Occurrence, A/T at +2 ([3]; position +2): 60% | Frequency of Occurrence, A/T at +3 [3]: 50% | Frequency of Occurrence, A/T at -1 [3]: 100% | Frequency of Occurrence, A/T at -2 [3]: 100% | Frequency of Occurrence, A/T at -3 [3]: 60% | Frequency of Occurrence, base C at +3 ([3]; C): 10% | Frequency of Occurrence, base C at -3 ([3]; C): 30% | Frequency of Occurrence, base G at +1 [3]: 20% | Frequency of Occurrence, base G at +2 ([3]; position +2): 40% | Frequency of Occurrence, base G at +3 [3]: 40% | Frequency of Occurrence, base G at -3 [3]: 10% | DNA alkylation ([3]; PAGE, in words): alkylate DNA strongly | Frequency of Occurrence, base T at +1 [3]: 50% | Frequency of Occurrence, base T at +2 ([3]; position +2): 30% | Frequency of Occurrence, base T at +3 [3]: 30% | Frequency of Occurrence, base T at -1 [3]: 60% | Frequency of Occurrence, base T at -2 [3]: 60% | Frequency of Occurrence, base T at -3 [3]: 30% | Frequency of Occurrence, A* (site of alkylation) [3]: 100% | Frequency of Occurrence, G* (site of alkylation) [3]: 0% | Alkylation Sites (5'-3'), Moderate [3]: TATA, TTAA, GTTA; also recorded: CTTA, GGAA | Alkylation Intensity at AATA* [3]: 1.08 | Alkylation Intensity at ATAA* ([3]; first column of Table 5): 1.47 | Alkylation Intensity at ATAA* ([3]; third column of Table 5): .96 | Alkylation Intensity at CTTA [3]: .61 | Alkylation Intensity at GAAA [3]: .35 | Alkylation Intensity at GATA* [3]: .80 | Alkylation Intensity at GTTA [3]: 1.20 | Alkylation Intensity at TATA [3]: 1.02 | Alkylation Intensity at TTAA* [3]: .80 | Alkylation Intensity at TTTA [3]: 1.09 | Alkylation Sites (5'-3'), Strong [3]: TTTA, GATA, ATAA; also recorded: AATA, ATAA

CCCC(=O)Nc1cc(C(=O)N2CC3CC34C2=CC(=O)c2[nH]cc(C)c24)n(C)c1 (centres unmarked) [YW-036]
IC50 [2, 7]: 0.47 ng/mL (≈ 1.2 nM) | In vivo ILS P388 (ip) ([5]; 0.3 mg/kg ip, 30 day survivors not included): 24.6% | cure ([5]; 0.3 mg/kg ip, survivors on day 30 evaluated as cured): 1/7

CCCC(=O)Nc1cc(C(=O)Nc2cc(C=CC(=O)N3CC4CC45C3=CC(=O)c3[nH]cc(C)c35)n(C)c2)n(C)c1 (centres unmarked) [YW-053]
Frequency of Occurrence, base A at +1 [3]: 27% | Frequency of Occurrence, base A at +2 ([3]; position +2): 27% | Frequency of Occurrence, base A at +3 [3]: 27% | Frequency of Occurrence, base A at -1 [3]: 36% | Frequency of Occurrence, base A at -2 [3]: 45% | Frequency of Occurrence, base A at -3 [3]: 36% | Frequency of Occurrence, A/T at +1 [3]: 82% | Frequency of Occurrence, A/T at +2 ([3]; position +2): 54% | Frequency of Occurrence, A/T at +3 [3]: 54% | Frequency of Occurrence, A/T at -1 [3]: 100% | Frequency of Occurrence, A/T at -2 [3]: 100% | Frequency of Occurrence, A/T at -3 [3]: 63% | Frequency of Occurrence, base C at +2 ([3]; C, position +2): 9% | Frequency of Occurrence, base C at +3 ([3]; C): 9% | Frequency of Occurrence, base C at -3 ([3]; C): 10% | Frequency of Occurrence, base G at +1 [3]: 28% | Frequency of Occurrence, base G at +2 ([3]; position +2): 37% | Frequency of Occurrence, base G at +3 [3]: 37% | Frequency of Occurrence, base G at -3 [3]: 27% | Frequency of Occurrence, base T at +1 [3]: 45% | Frequency of Occurrence, base T at +2 ([3]; position +2): 27% | Frequency of Occurrence, base T at +3 [3]: 27% | Frequency of Occurrence, base T at -1 [3]: 64% | Frequency of Occurrence, base T at -2 [3]: 55% | Frequency of Occurrence, base T at -3 [3]: 27% | Frequency of Occurrence, A* (site of alkylation) [3]: 91% | Frequency of Occurrence, G* (site of alkylation) [3]: 9% | Alkylation Sites (5'-3'), Moderate ([3]; listed as YW-53): TTAA, AATG, GATA; also recorded: ATAA, CTTA, GAAA | Alkylation Sites (5'-3'), Strong ([3]; listed as YW-53): TTTA, TATA, GTTA; also recorded: AATA, ATAA

Cc1c[nH]c2c1C13CC1CN(C(=O)c1nc(NC(=O)CCN(C)C)cn1C)C3=CC2=O (centres unmarked) [YW-63]
IC50 ([2]; Table 3, KB cells, 3 days, read-out: KB cells, toxicity TD50): 385 ng/mL (≈ 911 nM)

Cc1c[nH]c2c1C13CC1CN(C(=O)C=Cc1cccn1C)C3=CC2=O (centres unmarked) [YW-034]
IC50 [2, 6]: 0.275 ng/mL (≈ 0.825 nM) | IC50 [2, 7]: 0.27 ng/mL (≈ 0.81 nM) | In vivo ILS P388 (ip) ([5]; 1 mg/kg ip): 37.9% | Alkylation Intensity at AATA* [3]: 1.30 | Alkylation Intensity at ATAA* ([3]; first column of Table 5): .71 | Alkylation Intensity at ATAA* ([3]; third column of Table 5): .84 | Alkylation Intensity at CTTA [3]: .44 | Alkylation Intensity at GAAA [3]: .55 | Alkylation Intensity at GATA* [3]: 1.09 | Alkylation Intensity at GTTA [3]: .73 | Alkylation Intensity at TATA [3]: .77 | Alkylation Intensity at TTAA* [3]: .52 | Alkylation Intensity at TTTA [3]: .49

Cc1c[nH]c2c1C13CC1CN(C(=O)c1cccn1C)C3=CC2=O (centres unmarked) [YW-032]
IC50 [2, 6]: 38 ng/mL (≈ 124 nM) | Alkylation Intensity at AATA* [3]: 1.35 | Alkylation Intensity at ATAA* ([3]; first column of Table 5): .88 | Alkylation Intensity at ATAA* ([3]; third column of Table 5): 1.01 | Alkylation Intensity at CTTA [3]: .61 | Alkylation Intensity at GAAA [3]: .79 | Alkylation Intensity at GATA* [3]: 1.35 | Alkylation Intensity at GTTA [3]: 1.03 | Alkylation Intensity at TATA [3]: 1.05 | Alkylation Intensity at TTAA* [3]: .71 | Alkylation Intensity at TTTA [3]: .63

CC(=O)Nc1cc(C(=O)N2CC3CC34C2=CC(=O)c2[nH]cc(C)c24)n(C)c1 (centres unmarked) [YW-031]
IC50 [2, 6]: 0.0324 ng/mL (≈ 0.0889 nM)

— patent publication US5502068A, “Cyclopropylpyrroloindole-oligopeptide anticancer agents” (Synphar Laboratories, Inc., priority 1995, dated 1996)
